The text below walks through data of US11739132B2, “Separation moieties and methods of use thereof” (Werewolf Therapeutics, Inc., priority 2019, dated 2023).

No end group written: not given here.

One test deals with T1, Hepsin (Homo sapiens, UniProt P05981).
T1 construct: purchased R&D Systems (Bio-techne) 4776-SE
The experiment in a line: 30-mer library counter-screening MSP-MS, Hepsin. It counts as biochemical. On the procedure: (§1) Protease specificity screening was performed using Multiplexed Substrate Profiling by Mass Spectrometry (MSP-MS), the method described in, e.g. O'Donoghue A. J. et al., Nat Methods., 2012; 9(11): 1095-1100. This method employs a physico-chemically diverse peptide library as substrates for proteases, and reactions are monitored over time with mass spectrometric detection of cleaved products. The resulting cleavages are assessed for specific cleavage in the enzyme-treated sample by comparison with results from a no-enzyme control incubation.
(§2) Enzymes were activated and assayed following the manufacturer's recommendations.
Hepsin was pre-activated overnight at 37° C. in the manufacturer recommended buffer: 100 mM TRIS, 10 mM CaCl2, 150 mM NaCl, 0.05% Brij-35, pH 8.0. Activity was measured with 2.4 or 24 nM enzyme in the buffer: 50 mM TRIS HCl at pH 7.4.
(§3) Counter-screening was performed against the enzymes Thrombin, Factor Xa and Hepsin using this library as well, and for calibration of activity, a positive-control peptide bearing favorable motifs for these enzymes was also designed (ALU30-19).
(§4) Catalytic efficiency (kcat/KM) estimations were used to rank the top cleaved substrates in the MSP-MS reaction. Peptides were quantified by mass spectrometric label-free quantitation from the MS1 precursor ion peak areas for each peptide. Enzyme progress curves were modeled from six-time point measurements in GraphPad Prism. Data were fitted using non-linear least squares fitting to the first order kinetics equation:
(§5) [formula] where Y=percent product formation or substrate consumption, and t=time. The observed rate is a function of the enzyme concentration [E0], and an observed catalytic efficiency (kcat/KM) in units M^−1s^−1
(§6) Counter-screening with Thrombin, Factor Xa and Hepsin was also performed following the same analysis. The library peptide Alu30-19 was designed to include authentic sites for each enzyme, for comparison of overall cleavage efficiency as well as cleavage site specificity within each motif. The substrate designed for Factor Xa has the motif FNPR|TFGS (SEQ ID NO: 248), derived from the Factor Xa cleavage site in Thrombin. The substrate motif for Thrombin was FPR|, a common tool substrate motif. The substrate motif for hepsin was RKRR|GSRG (SEQ ID NO: 249) from filaggrin.
For orientation: The purpose of a counterscreen is to sort out artefacts and off-target activity.

The target of test [1] is T2, CTSL1 (Homo sapiens, UniProt P07711). The test is described as follows: 30-mer tandem linker library MSP-MS, CTSL1. It counts as biochemical. The procedure: as §1, §2
(§7) For CTSL1, enzyme was activated by pre-incubation in assay buffer (50 mM MES, 5 mM DTT, 1 mM EDTA, pH=6) for 15 min. MSP-MS reactions were then started with the mixing of enzyme and substrate, at final CTSL1 concentration of 0.04 ng/μl (0.77 nM), and peptide substrate concentration at 500 nM.
This hypothesis was tested in the context of the hybrid linker design experiment. Shown in FIG. 46 are the results of cleavage of two matched 30-mer peptides with the following sequences:
(§8) To analyze the catalytic efficiency of candidate tandem linker designs, a tailored library approach using MSP-MS was applied. For the tailored library, a set of nineteen synthetic peptides, 30 amino acids in length (30-mers), were designed to test whether sequence context affects the efficiency of cleavage. Peptides were assayed in a multiplex format together as a substrate library with individual recombinant enzymes, using MSP-MS. For quantitative comparisons, kinetic analysis was performed over a time course, and results are reported either as a catalytic efficiency kcat/KM for well-behaved first-order kinetics, or as observed rates as kobs for more complex kinetic behavior.
as §4, §5

The next test concerns the target T3, Thrombin (Homo sapiens, UniProt P00734).
T3 construct: purchased R&D Systems (Bio-techne) 2196-SE-200
The test is described as follows: 30-mer library counter-screening MSP-MS, Thrombin. It counts as biochemical. On the procedure: as §1, §2
Thrombin was activated following the manufacturer's recommended conditions by pre-incubation with the enzyme with thermolysin for 15 min, and then the thermolysin was quenched with 1,10 phenanthroline treatment. Activated thrombin was assayed at 1.2 nM in activation buffer: 50 mM TRIS HCl, 10 mM CaCl2, 150 mM NaCl, 0.05% (w/v) Brij-35, pH 7.5.
as §3, §4, §5, §6

Test [2] deals with conditioned media from tumor, myofibroblast and YAMC cell lines. The experiment in a line: FRET steady-state kinetics of conditioned media (enzyme equivalents). It counts as biochemical, mouse. Conditions: for Secreted activity in conditioned media, steady-state kinetics: tumor cell lines. An excerpt: (§9) Conditioned media and cell lysate samples were received from Charles River Laboratories for the murine colon cancer cell lines: MC38 (epithelial), CT26 (fibroblast), and CT26 transduced with a lentivirus for doxycyclin-inducible expression of MMP9 (CT26 pLVX MMP9-5T4+dox). An immortalized mouse intestinal myofibroblast cell line (ABM Good #T0565) was used as a control stromal cell line, grown under manufacturer recommended conditions. Conditioned media and cell lysate samples were also received for screening purposes from ABM Good for the immortalized mouse colonic epithelial cell line YAMC (ABM Good #T0567).
(§10) In the end-point screening assays, a fixed titer of 10× concentrated sample and a substrate concentration of 10 μM was used. Values reported in the end-point experiments are initial velocity measurements, in relative fluorescence units (RFU) per second. End-point measurements are a starting point for a screen, but the rate of the reaction is non-linearly related to substrate concentration. Therefore, a more accurate representation of activity would be given by steady-state kinetic measurements covering a range of substrate concentrations. To compare activity across cell lines, the data were treated with a Michaelis-Menten model, and the concentration of equivalent enzyme units [E0] was solved.
Accordingly, initial velocity was measured as a function of substrate concentration, using a 2-fold dilution series from 250 to 1 μM. Data were fitted using non-linear least squares fitting with GraphPad Prism software v 8.0 to the Michaelis-Menten equation:
[formula] where kcat is the rate of product formation under steady-state conditions in units (s^−1), and KM is the Michaelis constant that gives the substrate concentration in molar units (M) at which half maximum velocity of the reaction is produced for a given enzyme, [E0] is the enzyme concentration, and [S] the substrate concentration in (M).
In the assays where purified recombinant enzyme is used, the Michaelis-Menten parameters are as classically defined above. For conditioned media samples, the effective titer of conditioned media per assay was adjusted to approximately a 2× concentrate of the original unprocessed media samples to assure that the detection range matched the signal produced. The enzyme component in the calculation is redefined as a mixture of possible proteases that contribute to the cumulative observed activity, each with intrinsic reactivity toward a substrate. In this case, it is more appropriate to consider kcat and KM as macroscopic constants that represent the overall efficiency of catalysis, and E0 is an enzyme equivalent, expressed in units of concentration. To solve the data fit, kcat/KM can be fixed at that of the recombinant enzyme and enzyme equivalents per cell culture volume can be output. The effective titer of enzyme equivalents in this case can be used to compare the activity produced by the different cell lines.
An immortalized mouse colonic epithelial cell line (YAMC) was used to test activity in the presence of additional control “normal” epithelial cells. YAMC's are given the calculated enzyme equivalents (nM) resulting from all of these steady state experiments, to allow for comparison of the amount of equivalent activity per sample. For example, the YAMC control epithelial cell line produced activity with the ADAM17_2 substrate equivalent to that of 0.52±0.03 nM of ADAM17 recombinant enzyme. This cell line compares directly to MC38, also of epithelial origin, which had activity equivalent to that of 0.32±0.03 nM of ADAM17 recombinant enzyme. […] This cell line required non-standard cell culture conditions, including growth with murine IFNγ, and at low temperature to maintain, and may not be fully representative of epithelial cell lines.

The test system of test [3] is cell lysates of MC38, CT26, CT26-MMP9+ and myofibroblast cell lines. The experiment in a line: FRET assay of cell lysates (cell-associated activity). It counts as biochemical, mouse. Conditions: for Cleavage activity detected in cell lysates: four cell lines.
Description: as §9
(§11) Conditioned media samples were prepared according to the standard protocol using logarithmic phase cells. Briefly, cells were grown for 16h in either serum-free media or in complete media containing 10% fetal bovine serum (FBS). After conditioned media collection, the adherent cells were washed then lysed on plate with non-denaturing lysis buffer to produce a lysed “cell pellet” to capture any activity that remained associated with the cells. All cell culture-derived conditioned media samples, cell lysates from Charles River Laboratories, and cell lysates derived internally were processed with identical methods, to allow comparison between samples.
To test for cell pellet-associated FAPa activity, the cell lysates were clarified by ultracentrifugation and then assayed neat in the FRET assay. […] A modest 2-fold greater activity was detected in the three tumor cell lines over the myofibroblast cell line. For comparison, CTSL1 activity was also tested in the cell lysates. CTSL1 is a lysosomal enzyme; therefore, activity toward CTSL1_1 was expected to be similarly abundant in all four cell lines. The ratio of CTSL1_1 cleavage in tumor vs control cell lines in this screening format was ˜1× (grey bars, left-hand bar of each pair, FIG. 41). FAPα (fibroblast activating protein-alpha) is a marker for fibroblast (CT26) and myofibroblast cell lines.

Test [4] deals with conditioned media from MC38, CT26, CT26 pLVX MMP9-5T4+dox and myofibroblast cell lines. The test is described as follows: FRET end-point screen of conditioned media. Format: biochemical, mouse. Conditions: conditioned media.
Description: Proteolytic activity was screened in the conditioned media samples by fluorescent resonance energy transfer (FRET) assays with the substrates listed in Table 10.
as §9, §11
The resulting conditioned media was buffer exchanged with PBS and concentrated to 10× the original titer as a stock solution.
FBS background controls were therefore used for baseline subtraction at each concentration of substrate throughout the FRET experiments.
as §10

The target in another test is T4, FAPα (Homo sapiens, UniProt Q12884).
T4 construct: purchased R&D Systems (Bio-techne) 930-ADB-010
T4 sequence (Q12884 1-760): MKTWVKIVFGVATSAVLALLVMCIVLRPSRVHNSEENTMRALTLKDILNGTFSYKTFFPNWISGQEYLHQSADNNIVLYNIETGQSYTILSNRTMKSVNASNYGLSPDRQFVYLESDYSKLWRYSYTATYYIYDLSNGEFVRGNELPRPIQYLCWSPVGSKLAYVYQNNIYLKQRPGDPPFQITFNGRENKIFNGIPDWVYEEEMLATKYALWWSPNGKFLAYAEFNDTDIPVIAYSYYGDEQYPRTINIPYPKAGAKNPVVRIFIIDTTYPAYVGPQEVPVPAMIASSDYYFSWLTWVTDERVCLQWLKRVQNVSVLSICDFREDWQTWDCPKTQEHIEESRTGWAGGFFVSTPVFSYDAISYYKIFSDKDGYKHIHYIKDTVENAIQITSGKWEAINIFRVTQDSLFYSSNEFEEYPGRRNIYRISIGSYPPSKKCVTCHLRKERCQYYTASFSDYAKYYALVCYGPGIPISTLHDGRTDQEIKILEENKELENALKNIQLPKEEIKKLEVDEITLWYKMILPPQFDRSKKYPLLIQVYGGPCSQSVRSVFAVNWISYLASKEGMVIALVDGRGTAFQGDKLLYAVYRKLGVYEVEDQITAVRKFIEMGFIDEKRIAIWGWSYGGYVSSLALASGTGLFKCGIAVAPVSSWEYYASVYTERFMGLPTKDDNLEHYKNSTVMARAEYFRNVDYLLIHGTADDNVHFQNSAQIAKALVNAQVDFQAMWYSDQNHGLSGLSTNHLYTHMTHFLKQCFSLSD
The experiment in a line: 30-mer tandem linker library MSP-MS, FAPα. It counts as biochemical. Conditions: at PGGP|AGIG and GP|AGLYAQ respectively. The procedure: as §1, §2
FAPα activity was tested with fluorescence detection using a generic Z-GP-AMC substrate. For FRET assays, the final enzyme concentration was 5 nM and the buffer was 50 mM TRIS HCl, 1 M NaCl, 1 mg/mL BSA, pH 7.5.
as §8, §4, §5

In test [5] the target is T2, CTSL1. The test is described as follows: In vitro FRET kinetics with CTSL1. Format: biochemical. The conditions noted are these: 8-mer FRET peptide, Mca/Dnp pair. On the procedure:
as §2, §7
Additional in vitro kinetic experiments were performed to characterize a new candidate motif for CTSL1 enzyme; the CTSL1_2 motif has the sequence […] (SEQ ID NO: 199). […] Yet, initial experiments with the CTSL1_2 FRET substrate were inconclusive, possibly due to artifacts in the FRET assay; therefore, a new FRET peptide construct was designed with the 9-mer sequence […] (SEQ ID NO: 236).
All of the FRET substrates used in these studies have a methoxycoumarin (Mca) fluorophore and dinitrophenyl-lysyl (Dnp) quencher pair at the N- and C-termini of the sequences, respectively.

T2 sequence (P07711 114-333): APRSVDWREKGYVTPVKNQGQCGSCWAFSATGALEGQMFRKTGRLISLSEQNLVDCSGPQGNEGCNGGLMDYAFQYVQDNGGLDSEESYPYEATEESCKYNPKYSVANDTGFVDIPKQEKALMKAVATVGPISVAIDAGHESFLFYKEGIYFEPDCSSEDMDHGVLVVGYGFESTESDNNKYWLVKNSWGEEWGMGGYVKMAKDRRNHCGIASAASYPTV
T1 sequence (P05981 163-417 limits assumed): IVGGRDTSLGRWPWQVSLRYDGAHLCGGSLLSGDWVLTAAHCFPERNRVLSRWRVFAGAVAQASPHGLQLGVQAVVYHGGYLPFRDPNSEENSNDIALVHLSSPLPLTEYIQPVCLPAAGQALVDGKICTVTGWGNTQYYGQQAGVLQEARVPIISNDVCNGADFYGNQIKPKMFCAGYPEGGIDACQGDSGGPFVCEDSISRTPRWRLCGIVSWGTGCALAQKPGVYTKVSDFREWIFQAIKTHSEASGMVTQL
T1 sequence (P05981 1-162 partner limits assumed): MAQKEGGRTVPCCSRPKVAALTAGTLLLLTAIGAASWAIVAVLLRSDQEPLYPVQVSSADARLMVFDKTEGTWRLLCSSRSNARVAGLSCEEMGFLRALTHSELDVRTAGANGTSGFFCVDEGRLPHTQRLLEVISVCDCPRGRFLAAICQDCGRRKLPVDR

Take “RGGGPAGLYAQPLAQKLKSSALFKSSFPGG [Alu30-15]”: the “Relative efficiency of cleavage by hepsin” value with Hepsin is on record as “slightly higher hepsin susceptibility”. Further, the “Relative efficiency of 30-mer peptide cleavage by CTSL1” value in the test with CTSL1 [1] is “lower CTSL1 activity”. Further, in the test with Thrombin, the “Relative efficiency of 30-mer peptide cleavage by thrombin” value was “cleaved at lower efficiency”.

For “PGGPAGIG (also: Mca fluorophore and Dnp quencher, places not given here) [FAPα_1, FRET substrate with Mca fluorophore and Dnp quencher]”, in test [2] (myofibroblast), the “Secreted activity in myofibroblast conditioned media, steady-state kinetics” value was “no measurable secreted activity”. Besides, in test [2], the “Secreted activity in conditioned media, steady-state kinetics” value was “lower activity than that associated with the cell pellet”. For the same sequence, in test [3] (cell lysates), the “Cell-associated activity in myofibroblasts” value was “did have cell-associated activity”. Moreover, the “Activity in three tumor cell lines over myofibroblast cell line, cell lysates” value in test [3] (cell lysates assayed neat) came out at 2 fold. For the same sequence, the “Cleavage activity detected in cell lysates” value in test [3] is reported as “detected in all four cell lines”. Moreover, in test [4], the “Substrate cleavage activity in the end-point screen” value is “very low, but was still detected in all three tumor cell lines”. The “Cleavage of motif by FAPα” value with FAPα is given as “able to cleave”.

Take “ALFKSSFP (also: Mca fluorophore and Dnp quencher, places not given here) [CTSL1_1, FRET substrate with Mca fluorophore and Dnp quencher]”: the “−1 site product formation by CTSL1” value in the test with CTSL1 [1] (matched 30-mer peptides SEQ ID NO: 207 (CTSL1_1) and 219 (CTSL1_2)) is recorded as “had a −1 site product”. In addition, in the test with CTSL1 [5], the “Cleavage of 8-mer FRET substrate by CTSL1” value is “highly efficiently”. Moreover, the “Secreted activity in conditioned media, steady-state kinetics” value in test [2] was “no measurable activity above background”. In addition, the “Cell-associated activity, MC38 vs other cell lines” value in test [3] (cell lysates) is “significantly greater in MC38 cells over the myofibroblast, CT26 parental, and CT26-MMP9+ cells”. In addition, the “Ratio of cleavage in tumor vs control cell lines, cell lysates” value in test [3] (cell lysates assayed neat) is recorded as ~1 ×. Besides, the “Cleavage activity detected in cell lysates” value in test [3] was “detected in all of the cell lysates”. In test [4] (end-point screen), the “Substrate cleavage activity, CT26-MMP9+ cell line” value is “undetectable activity”; the “Substrate cleavage activity, MC38 and CT26 parental cell lines” value is recorded as “low activity”; the “Substrate cleavage activity, control myofibroblast cell line” value is recorded as “undetectable activity”.
